# Results taken from patent US9776962B2, “Aromatic compounds with GPR40 agonistic activity” (TAKEDA PHARMACEUTICAL COMPANY LIMITED, priority 2013, dated 2017).
# Molecular target: T1, human GPR40 (Homo sapiens, UniProt O14842)
# T1 construct: expressed in transfected cells
# Test: Evaluation of human GPR40 agonist activity with increase in intracellular Ca2+ concentration as an index (FLIPR)
# Type: cell-based
# Conditions: test compound 1 μM; CHO(dhfr−) cells stably expressing human GPR40; 100% = 10 μM compound of Example 153, 0% = DMSO
# Method: Plasmid hGPR40/pAKKO-1.11H for mammalian cells expression, wherein cDNA fragment (SEQ ID NO: 1) encoding the full-length human GPR40 was incorporated into an expression vector pAKKO-1.11H (Biochimica et Biophysica Acta vol. 1219 pp. 251-259 (1994)), was transfected into CHO-dhfr(−) cells (ATCC, CRL-9096) by using Lipofectamine 2000 (Invitrogen:11668-019). After transfection, the limiting dilution-culture method was performed to select clone in selection medium (nucleic acid-free α-MEM (Invitrogen:12561-056)) containing 10% dialyzed bovine serum (Invitrogen:26400-044)). The expression level of human GPR40 mRNA was confirmed by TaqMan PCR (Life Technologies), and the intracellular calcium mobilization activity of GPR40 ligand (γ-linolenic acid) was confirmed by FLIPR (Molecular Devices), and a clone of human GPR40 expressing CHO cells was selected.
# Evaluation of Human GPR40 Agonist Activity with Increase in Intracellular Ca^2+ Concentration as an Index
# CHO(dhfr−) cells that stably expressed human GPR40 were suspended in MEMα (Nikken Bio Medical Laboratory) containing 10% dialyzed bovine serum (JR Scientific), 10 mM HEPES (Life Technologies), 100 U/mL penicillin, 100 μg/mL streptomycin (Life Technologies), and plated on a 384 well black/clear cell culture plate at 10,000 cells/well. After culture overnight in a CO2 incubator at 37° C., the culture supernatant was removed, and loading buffer [Ca^2+ probe attached to Calcium Kit II-iCellux (DOJINDO) was dissolved in assay buffer (20 mM HEPES, 0.1% fatty acid-free BSA (Sigma-Aldrich), 2.5 mM probenecid (DOJINDO)-containing HESS (Life Technologies))] was added at 30 μL/well. After leaving for 1 hr at room temperature under light shielding, assay buffer containing the test compound at a final concentration of 1 μM was added at 10 μL/well in FLIPR Tetra (Molecular Devices), and the fluorescence amount was successively measured. Human GPR40 agonist activity calculated using an increase in the intracellular Ca^2+ concentration as an index, wherein the activity of 10 μM of the compound of Example 153 was 100%, and the activity when DMSO was added instead of the test compound was 0%.
# T1 sequence (O14842 whole entry): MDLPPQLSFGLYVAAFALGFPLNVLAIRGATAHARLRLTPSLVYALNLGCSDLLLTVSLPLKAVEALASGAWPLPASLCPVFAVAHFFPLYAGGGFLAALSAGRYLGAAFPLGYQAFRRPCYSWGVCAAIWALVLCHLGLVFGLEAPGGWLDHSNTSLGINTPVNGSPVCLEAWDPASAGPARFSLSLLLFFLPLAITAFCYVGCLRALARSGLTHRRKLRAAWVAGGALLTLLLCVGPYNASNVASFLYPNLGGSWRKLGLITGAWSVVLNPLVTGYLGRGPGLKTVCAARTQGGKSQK
row,activation at 1 µM [%],SMILES
1,96,"COc1ccc(C(=O)N(CC(C)C)c2ccc(C)cn2)c(N2CCC(COc3cc(C(CC(=O)O)C4CC4)ccn3)CC2)c1 (stereo not shown) [Example 115, 3-cyclopropyl-3-(2-((1-(5-methoxy-2-((2-methylpropyl)(5-methylpyridin-2-yl)carbamoyl)phenyl)piperidin-4-yl)methoxy)pyridin-4-yl)propanoic acid]"
2,101,"COc1ccc(C(=O)N(CC(F)(F)F)c2ccccn2)c(N2CCC(COc3cc(C(CC(=O)O)C4CC4)ccn3)CC2)c1 (stereo not shown) [Example 116, 3-cyclopropyl-3-(2-((1-(5-methoxy-2-(pyridin-2-yl(2,2,2-trifluoroethyl)carbamoyl)phenyl)piperidin-4-yl)methoxy)pyridin-4-yl)propanoic acid]"
3,95,"COc1ccc(C(=O)N(CC2CC2)c2ccccn2)c(N2CCC(COc3cc(C(CC(=O)O)C4CC4)ccn3)CC2)c1 (stereo not shown) [Example 117, 3-cyclopropyl-3-(2-((1-(2-((cyclopropylmethyl)(pyridin-2-yl)carbamoyl)-5-methoxyphenyl)piperidin-4-yl)methoxy)pyridin-4-yl)propanoic acid]"
4,103,"COc1ccc(C(=O)N(CC2CCC2)c2ccccn2)c(N2CCC(COc3cc(C(CC(=O)O)C4CC4)ccn3)CC2)c1 (stereo not shown) [Example 118, 3-(2-((1-(2-((cyclobutylmethyl)(pyridin-2-yl)carbamoyl)-5-methoxyphenyl)piperidin-4-yl)methoxy)pyridin-4-yl)-3-cyclopropylpropanoic acid]"
5,52,"COc1ccc(C(=O)N(CC(C)(C)O)c2ccccn2)c(N2CCC(COc3cc(C(CC(=O)O)C4CC4)ccn3)CC2)c1 (stereo not shown) [Example 119, 3-cyclopropyl-3-(2-((1-(2-((2-hydroxy-2-methylpropyl)(pyridin-2-yl)carbamoyl)-5-methoxyphenyl)piperidin-4-yl)methoxy)pyridin-4-yl)propanoic acid]"
6,100,"COc1ccc(C(=O)N(CC(C)(C)F)c2ccccn2)c(N2CCC(COc3cc(C(CC(=O)O)C4CC4)ccn3)CC2)c1 (stereo not shown) [Example 120, 3-cyclopropyl-3-(2-((1-(2-((2-fluoro-2-methylpropyl)(pyridin-2-yl)carbamoyl)-5-methoxyphenyl)piperidin-4-yl)methoxy)pyridin-4-yl)propanoic acid]"
7,95,"COc1ccc(C(=O)N(c2ccccn2)C(C)C(C)C)c(N2CCC(COc3cc(C(CC(=O)O)C4CC4)ccn3)CC2)c1 (stereo not shown) [Example 121, 3-cyclopropyl-3-(2-((1-(5-methoxy-2-((3-methylbutan-2-yl)(pyridin-2-yl)carbamoyl)phenyl)piperidin-4-yl)methoxy)pyridin-4-yl)propanoic acid]"
8,101,"COc1ccc(C(=O)N(CC(C)C)c2cccc(C)n2)c(N2CCC(COc3cc(C(CC(=O)O)C4CC4)ccn3)CC2)c1 (stereo not shown) [Example 122, 3-cyclopropyl-3-(2-((1-(5-methoxy-2-((2-methylpropyl)(6-methylpyridin-2-yl)carbamoyl)phenyl)piperidin-4-yl)methoxy)pyridin-4-yl)propanoic acid]"
9,99,"COc1ccc(C(=O)N(CC(C)C)c2cc(C)ccn2)c(N2CCC(COc3cc(C(CC(=O)O)C4CC4)ccn3)CC2)c1 (stereo not shown) [Example 123, 3-cyclopropyl-3-(2-((1-(5-methoxy-2-((2-methylpropyl)(4-methylpyridin-2-yl)carbamoyl)phenyl)piperidin-4-yl)methoxy)pyridin-4-yl)propanoic acid]"
10,96,"COc1ccc(C(=O)N(CC2CC2)c2cccc(C)n2)c(N2CCC(COc3cc(C(CC(=O)O)C4CC4)ccn3)CC2)c1 (stereo not shown) [Example 124, 3-cyclopropyl-3-(2-((1-(2-((cyclopropylmethyl)(6-methylpyridin-2-yl)carbamoyl)-5-methoxyphenyl)piperidin-4-yl)methoxy)pyridin-4-yl)propanoic acid]"
